Measured values: patent US12102631B2, “Quinolylnitrones for the treatment and prevention of a cerebral stroke or ischaemia” (ISQUAEMIA BIOTECH, S.L., priority 2018, dated 2024)

Legend:
Assay type in all cases: biochemical
[1] = target: T1, soybean lipoxygenase LOX (Glycine max, UniProt P08170); assay: Lipoxygenase (LOX) inhibition, UV-based enzyme assay; conditions: for LOX (%): tested at 100 μM
T1 sequence (P08170 1-839): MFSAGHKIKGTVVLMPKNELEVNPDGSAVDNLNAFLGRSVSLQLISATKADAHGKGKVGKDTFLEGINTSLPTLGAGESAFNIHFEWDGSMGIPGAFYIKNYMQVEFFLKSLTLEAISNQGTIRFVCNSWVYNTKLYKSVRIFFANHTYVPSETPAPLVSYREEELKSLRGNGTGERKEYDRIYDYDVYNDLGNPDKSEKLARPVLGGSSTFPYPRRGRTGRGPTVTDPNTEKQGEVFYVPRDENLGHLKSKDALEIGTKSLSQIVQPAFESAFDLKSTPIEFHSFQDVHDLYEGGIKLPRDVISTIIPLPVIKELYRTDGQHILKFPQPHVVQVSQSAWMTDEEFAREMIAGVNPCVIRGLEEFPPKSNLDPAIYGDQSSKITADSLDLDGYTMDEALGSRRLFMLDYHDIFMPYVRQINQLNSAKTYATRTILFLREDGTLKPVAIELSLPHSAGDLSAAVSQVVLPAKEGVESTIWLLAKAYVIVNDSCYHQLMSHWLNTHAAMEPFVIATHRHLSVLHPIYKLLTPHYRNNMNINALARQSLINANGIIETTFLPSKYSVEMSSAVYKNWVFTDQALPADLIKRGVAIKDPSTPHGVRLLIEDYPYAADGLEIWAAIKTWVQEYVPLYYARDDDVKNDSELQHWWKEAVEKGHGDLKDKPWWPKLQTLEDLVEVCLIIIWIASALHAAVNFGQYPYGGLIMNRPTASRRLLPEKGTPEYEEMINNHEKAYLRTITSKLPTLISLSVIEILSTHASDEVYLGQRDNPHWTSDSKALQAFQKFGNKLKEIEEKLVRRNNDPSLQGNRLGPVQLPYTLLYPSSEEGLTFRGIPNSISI
From the text: 3.5. Lipoxygenase inhibition of QNs. […] A key strategy to prevent potential damage to cellular compounds such as DNA, proteins and lipids is to reduce the free radical load. […] LOX index, a novel predictive biochemical marker for coronary heart disease and stroke. […] Thus, LOX inhibitors may provide multifactorial protection against ischemic injury. […] Most of the LOX inhibitors are often antioxidants or free radical scavengers.

[2] = ABTS radical cation decolorization assay; conditions: tested at 100 μM
Procedure: ABTS^⋅+-decolorization assay in ethanolic solution for antioxidant activity.^32,35 ABTS is dissolved in water to a 2 mM concentration. ABTS radical cation (ABTS^⋅+) is produced by reacting the ABTS stock solution with 0.17 mM potassium persulfate in phosphate buffer (pH 7.4, 20 mM) and allowing the mixture to stand in the dark at room temperature for 12-16 h before use. For steady state measurements, […] ABTS^⋅+ was used. For the present study, the […] ABTS^⋅ solution (200 μL) was diluted with ethanol (790 μL) to an absorbance of 0.70 at 734 nm, equilibrated at room temperature, mixed with 10 μL of the tested compounds (stock solutions 10 mM) and the absorbance reading was taken at room temperature 1 min after the initial mixing. Trolox was used as a standard.
3.4. ABTS^⋅+ antioxidant activity of QNs. The ABTS^⋅+ radical cation, derived from the oxidation of 2,2′-azino-bis(3-ethylbenzothiazoline-6-sulphonic acid) (ABTS) by potassium persulfate, is a green-blue stable chromophore, which can be analyzed in the course of a decolorization assay. The addition of electron-donor antioxidants leads to ABTS^⋅+ reduction. The chemistry taking place involves the direct generation of the ABTS^⋅+ with no involvement of an intermediary radical. […] Again, and as shown, QN23 presented limited activity beside with 19, although the others nitrones had no activity (Table 3).

[3] = Inhibition of linoleic acid peroxidation (AAPH, ILPO); conditions: tested at 100 μM
Procedure: Inhibition of Linoleic Acid Peroxidation.^32 For initiating the free radical, 2,2′-azobis(2-amidinopropane) dihydrochloride (AAPH) is used. The final solution in the UV cuvette consisted of ten microliters of the 16 mM linoleate sodium dispersion 0.93 mL of 0.05 M phosphate buffer, pH 7.4, thermostatted at 37° C. 50 μL of 40 mM AAPH solution was added as a free radical initiator at 37° C. under air and 10 μL of the tested compounds. The oxidation of linoleic acid sodium salt results a conjugated diene hydroperoxide. The reaction is monitored at 234 nm (Table 1).
3.3. Anti-lipid peroxidation activity of QNs. The water-soluble azo compound 2,2′-azobis(2-amidinopropane) dihydrochloride (AAPH) has been extensively used as a clean and controllable source of thermally produced alkyl peroxyl free radicals through spontaneous thermal decomposition. […] In the AAPH assay to determine the inhibition of the lipid peroxidation (ILPO), the highly reactive alkylperoxyl radicals are intercepted mainly by a hydrogen atom transfer from the antioxidant. As shown, QN23 presented limited value, where QNs 19, 22 and 24 presented very high values (Table 3).

| SMILES | IC50 [1] [µM] | ABTS*+ (%) [2] | ILPO (%) / AAPH (%) [3] | LOX (%) [1] [%] |
| --- | --- | --- | --- | --- |
| CC(C)(C)/[N+]([O-])=C/c1ccc(S(=O)(=O)O)cc1S(=O)(=O)O [Compound 2, sodium (Z)-4-((tert-butyloxidoazanylidene)methyl)benzene-1,3-disulfonate, reference compound] | 57.5 | no | no | – |
| CC(C)(C)/[N+]([O-])=C/c1cc2ccccc2nc1Cl [Compound 18, (Z)—N-t-Butyl-1-(2-chloroquinolin-3-yl)methanimine oxide] | – | no | no | – |
| COc1ccc2nc(Cl)c(/C=[N+](/C)[O-])cc2c1 [Compound 22, (Z)-1-(2-Chloro-6-methoxyquinolin-3-yl)-N-methylmethanimine oxide] | – | no | 100% | 26 |
| COc1ccc2nc(Cl)c(/C=[N+](\[O-])C(C)(C)C)cc2c1 [Compound 23, (Z)—N-tert-Butyl-1-(2-chloro-6-methoxyquinolin-3-yl)methanimine oxide] | – | 7% | 22% | 29 |

Continued, in another order:

| IC50 [1] [µM] | SMILES | ABTS*+ (%) [2] | ILPO (%) / AAPH (%) [3] | LOX (%) [1] [%] |
| --- | --- | --- | --- | --- |
| 36.5 | CC(C)(C)/[N+]([O-])=C/c1cc2ccccc2[nH]c1=O [Compound 19, (Z)—N-tert-Butyl-1-(2-oxo-1,2-dihydroquinolin-3-yl)methanimine oxide] | 6% | 100% | – |
| 100 | COc1ccc2nc(Cl)c(/C=[N+](\[O-])Cc3ccccc3)cc2c1 [Compound 24, (Z)—N-Benzyl-1-(2-chloro-6-methoxyquinolin-3-yl)methanimine oxide] | no | 100% | – |
| 7.6 | COc1ccc2nc(Cl)c(C=O)cc2c1 [Compound 32, 2-chloro-6-methoxyquinoline-3-carbaldehyde, reference compound] | 5% | 25% | – |
